# Experimental data reported in patent publication EP4417616A1, “LXR ANTAGONISTS” (Ospedale San Raffaele S.r.l., priority 2023, dated 2024).
# pIC50: −log10 of the molar value. Entries after “also recorded” stand apart in the source; their conditions may differ.
# Experiments:
# [1] = target: T1, LXRα (Homo sapiens, UniProt Q13133); assay: Luciferase-based reporter assay for LXRα transcriptional activity (HEK293, Gal4-LXRα); assay type: cell-based; details: for antagonism of LXRα activation induced by 22R-HC: 22R-HC 5 or 10 µM, titrating amounts of compound (1-50 µM)
# T1 construct: expressed in transfected cells; host or cells: HEK293
# T1 sequence (Q13133 1-447): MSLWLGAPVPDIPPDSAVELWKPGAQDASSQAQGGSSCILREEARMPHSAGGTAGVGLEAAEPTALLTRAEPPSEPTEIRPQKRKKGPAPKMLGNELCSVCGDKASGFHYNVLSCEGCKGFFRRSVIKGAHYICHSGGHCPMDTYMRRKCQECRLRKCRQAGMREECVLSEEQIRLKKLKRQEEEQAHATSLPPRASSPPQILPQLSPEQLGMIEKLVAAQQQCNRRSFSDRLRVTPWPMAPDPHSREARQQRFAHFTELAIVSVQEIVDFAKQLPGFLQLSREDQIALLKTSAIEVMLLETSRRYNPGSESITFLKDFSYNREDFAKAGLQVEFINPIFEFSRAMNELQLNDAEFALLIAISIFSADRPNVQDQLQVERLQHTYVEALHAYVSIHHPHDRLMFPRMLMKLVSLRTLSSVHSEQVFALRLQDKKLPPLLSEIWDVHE
# Experimental: Reporter assay for nuclear receptor transcriptional activity. Human embryonic Kidney 293 cells (American Type Culture Collection) were cultured in Dulbecco's Modified Eagle's medium containing 10% of fetal bovine serum at 37°C in humidified atmosphere of 5% CO2. HEK293 cells (4×10^4 cells per well) were transiently transfected in 48 well plate with the reporter plasmids pMH100X4-TK-luc (100 ng/300µl), Renilla (22 ng/300µl) together with 100 ng/300µl of pCMX-Gal4-LXRα or pCMX-Gal4-LXRβ plasmids using X-tremeGENE 9 DNA Transfection Reagent (Roche). Six hours after transfection, the cells were treated with the appropriate compound for 24 hours. Luciferase activities were analyzed by luciferase Dual Reporter Assay Systems (Promega) according to the manufacturer's protocol. GAL4-LXRs, and TK-MHC100-luc plasmids were described in^7. […] Six hours after transfection, the cells were treated with the appropriate compound for 40 hours. Luciferase activity was analyzed as described above and protein content spectrophotometrically using Coomassie Plus Protein assay reagent (Thermo Scientific). Quantitative Real-Time-PCR. U937 cell line was differentiated in foam macrophages with phorbol 12-myristate 13-acetate (PMA) 10 ng/ml (Sigma) for 72 hours at 37°C in RPMI 10% FBS. At day 3 T0901317 (10 µM) or different amount of PFM037 (50, 25 and 10 µM) were added for 16 hours. Total RNA was purified by TRIZOL (Invitrogen). Reverse transcription was performed by MLV-reverse transcriptase (Promega). QPCR was performed using SYBR Green Master Mix (Applied Biosystems) and real-time PCR (Viia 7 Real Time PCR System, Applied Biosystems). PCR reactions were done in triplicate.
# [2] = tested on: Lewis Lung Carcinoma (LLC); assay: Treatment of LLC tumor-bearing mice; assay type: in vivo
# Source text: Tumor challenge experiments.
# [3] = tested on: LLC tumor cells; assay: In vitro growth of LLC tumor cells; assay type: cell-based, mouse; details: compared with vehicle
# [4] = tested on: RMA lymphoma; assay: Treatment of RMA tumor-bearing mice; details: 300 µg i.v. 5 days/week
# Experimental: Analysis of tumor infiltrating cells by flow cytometry. […] Tumors collected 7, 10, 12 or 14 days after injection were cut into small fragments and digested with Liberase TL (66 µg/ml, Roche) and DNAse I (150 µg/ml, Roche) for 25-30 minutes at 37 °C. Digested tissues were filtered by using a 75 µm diameter cell strainer. Single cell suspensions were stained with Live/Dead Violet kit reagents (Molecular Probes) for 30 minutes at 4°C. After washing, the cells were incubated for 5-10 minutes at RT with Fc-blocking solution (Anti-CD16/32, 10 µg/ml mouse Fc Block, BD) and then stained with various antibodies incubated at 4°C for 20 minutes. […] CD209a (5H10), CCR7 (4b12) and F4/80 (BM8) were from eBioscience. Rat IgG, Rat IgG2a, Rat IgG2b, Rat IgM and Hamster isotype control mAbs were used as controls (Biolegends and BD Biosciences). For intracellular staining, cells were incubated with PMA (100 ng/ml) and ionomycin (500 ng/ml) in the presence of 10 µg/ml of Brefeldin for 4 hours. Cells were then fixed using the IC Fixation buffer (eBioscience), permeabilized with 1x Permeabilization buffer (eBiosciences) and stained with anti-IFNy mAb. Samples were run by FACSCanto flow cytometer and analyzed by FlowJo software gating on live cells. FACS sorting was performed by using the FACSAria Fusion (BD)
# Tumor challenge experiments. C57BL/6 mice were injected subcutaneously with LLC-Mock (1 ×10^6), LLC-SULT2B1b (1 ×10^6), RMA (2 ×10^5), or B16F1-OVA (2 ×10^5) tumor cells. […] Tumor size was evaluated by measuring perpendicular diameters by a caliper every 2-3 days. Data are reported as the average tumor volume ± SD. In selected experiments tumors were injected in Ccr2^-/-mice.
# Treatment of tumor-bearing mice with LXR antagonists alone or with immunotherapy. Tumor-bearing mice were treated with 25-HC-3S or PFM037 6-7 days after tumor challenge. After 6-7 days, mice were randomly assigned to either treatment or vehicle groups. Mice were injected with 300 µg of either compound given i.v. for 5 days/week. […] B16F1-OVA-bearing mice were treated with 400 µg of PFM037 for 5 days/week. For controls of mAb experiments, mice were injected with 250 µg of rat IgG2a isotype control antibody. […] Tumors were collected and measured 14 days after tumor challenge.
# [5] = target: T2, LXRα-LBD (Homo sapiens, UniProt Q13133); assay: Mammalian two-hybrid assay, RAP250-Del4 with pVP16-LXRα-LBD; assay type: cell-based; details: ligand alone, 10 µM; Huh7 cells
# T2 construct: expressed in transfected cells; host or cells: Huh7 (printed 'Hhu7') human liver cell line
# T2 sequence (Q13133 209-447 limits assumed): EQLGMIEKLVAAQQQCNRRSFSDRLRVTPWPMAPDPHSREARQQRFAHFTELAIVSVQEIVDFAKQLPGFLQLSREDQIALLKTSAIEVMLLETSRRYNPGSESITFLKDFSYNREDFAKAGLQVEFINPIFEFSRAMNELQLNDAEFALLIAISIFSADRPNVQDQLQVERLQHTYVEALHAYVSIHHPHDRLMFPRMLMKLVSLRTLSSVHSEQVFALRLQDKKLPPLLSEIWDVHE
# [6] = target: T3, LXRβ-LBD (Homo sapiens, UniProt P55055); assay: Mammalian two-hybrid assay, RAP250-Del4 with pVP16-LXRβ-LBD; assay type: cell-based; details: ligand alone, 10 µM; Huh7 cells
# T3 construct: expressed in transfected cells; host or cells: Huh7 (printed 'Hhu7') human liver cell line
# T3 sequence (P55055 222-460 limits assumed): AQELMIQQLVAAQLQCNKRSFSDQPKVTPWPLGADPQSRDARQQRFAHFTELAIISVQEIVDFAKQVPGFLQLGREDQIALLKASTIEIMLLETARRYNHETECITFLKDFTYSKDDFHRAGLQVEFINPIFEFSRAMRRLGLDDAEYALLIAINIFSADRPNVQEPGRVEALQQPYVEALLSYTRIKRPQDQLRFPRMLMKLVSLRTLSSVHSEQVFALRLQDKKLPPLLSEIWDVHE
# [7] = LLC-bearing mice, 300 µg i.v. 5 days/week from day 6-7, vs vehicle
smiles,measurement,setting,value
"C[C@H](CCCC(C)(C)O)[C@H]1CC[C@H]2[C@@H]3CC=C4C[C@@H](OS(=O)(=O)O)CC[C@]4(C)[C@H]3CC[C@]12C [25-HC-3S, 25-Hydroxycholesterol-3-sulfate, reference compound]",pIC50,[1],4.90
same,antagonism of LXRα activation induced by 22R-HC,[1],antagonized the LXRα activity in a dose-dependent manner
same,absolute numbers of tumor-infiltrating mono-DCs,[2]; [7],Higher
same,tumor growth,[2]; [7],delay of tumor growth
same,in vitro growth of LLC tumor cells,[3],grew in a similar manner
same,numbers of tumor-infiltrating mono-DCs,[4],Higher
same,tumor growth,[4]; tumor weight at sacrifice,tumor growth control
CC(C)CC[C@@H](O)[C@@H](C)[C@H]1CC[C@H]2[C@@H]3CC=C4C[C@@H](O)CC[C@]4(C)[C@H]3CC[C@]12C [22R-HC],luciferase activity,[5],induced luciferase activity
same,luciferase activity,[6],induced luciferase activity
"CC(C)CC[C@H](O)[C@@H](C)[C@H]1CC[C@H]2[C@@H]3CC=C4C[C@@H](O)CC[C@]4(C)[C@H]3CC[C@]12C [22S-HC, 22S-hydroxycholesterol]",antagonism of LXRα activation induced by 22R-HC,[1],does not antagonize; also recorded: did not antagonize
"C[C@@H]([C@H]1CC[C@H]2[C@@H]3CC=C4C[C@@H](O)CC[C@]4(C)[C@H]3CC[C@]12C)[C@@H](O)Cc1ccccc1 [PFM046, (22S)-23-Phenyl-24-norchol-5-en-3β,22-diol]",tumor growth,"[2]; established LLC tumors, 300 µg/mouse every other day, Fig. 24B",able to control LLC tumor growth; also recorded: controls tumor growth
